Experimental data taken from the supplement of paper PMC11061612.

Columns and labels:
A375 (Melanoma) = assay: Bliss excess, mean over the matrix (fraction); higher = more synergy
Procedure, shortened: (§1)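 Cell lines in DMEM/F12 or RPMI with 10% FBS were plated in 1536-well plates, held 24 hours at 37°C, 5% CO2, then given two-drug dose matrices for 72 hours (DMSO typically 0.2%). Viability was read by CellTiter-Glo 2.0 luminescence and scaled as inhibition from 0 (vehicle wells) to 1 (blank wells). Combination Emax is the second-highest inhibition in the matrix; Bliss excess is observed combination effect minus expected EA + EB − EA·EB, EA and EB being single-agent effects.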

[1] = system: BT-474 (Breast Carcinoma); assay: as above
Procedure, shortened: as §1

C32 (Melanoma) = assay: as above
Procedure, shortened: as §1

DK-MG (Glioblastoma) = assay: as above
Procedure, shortened: as §1

[2] = system: HT-1197 (Bladder Carcinoma); assay: as above
Procedure, shortened: as §1

[3] = system: KNS-62 (Squamous Cell Lung Carcinoma); assay: as above
Procedure, shortened: as §1

[4] = system: MDA-MB-175-VII (Breast Carcinoma); assay: as above
Procedure, shortened: as §1

[5] = system: NCI-H1048 (Small Cell Lung Carcinoma); assay: as above
Procedure, shortened: as §1

[6] = system: NCI-H2023 (Non-Small Cell Lung Carcinoma); assay: as above
Procedure, shortened: as §1

[7] = system: NCI-H835 (Other Solid Carcinomas); assay: as above
Procedure, shortened: as §1

[8] = system: OVKATE (Ovarian Carcinoma); assay: as above
Procedure, shortened: as §1

SK-MEL-24 (Melanoma) = assay: as above
Procedure, shortened: as §1

[9] = system: SNU-1 (Gastric Carcinoma); assay: as above
Procedure, shortened: as §1

[10] = system: SW1463 (Colorectal Carcinoma); assay: as above
Procedure, shortened: as §1

[11] = system: TOV-21G (Ovarian Carcinoma); assay: as above
Procedure, shortened: as §1

[12] = system: NCI-H835 (Other Solid Carcinomas); assay: combination Emax (second highest fraction inhibited in the dose matrix, 72 h); higher = more inhibition; extreme values may be limits of the assay
Procedure, shortened: as §1
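Wherever Bliss excess, mean over the matrix is given: after 72 h of two-drug dosing.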

| Structure (SMILES) | Bliss excess (A375 (Melanoma)) | Bliss excess [1] | Bliss excess (C32 (Melanoma)) | Bliss excess (DK-MG (Glioblastoma)) | Bliss excess [2] | Bliss excess [3] | Bliss excess [4] | Bliss excess [5] | Bliss excess [6] | Bliss excess [7] | Bliss excess [8] | Bliss excess (SK-MEL-24 (Melanoma)) | Bliss excess [9] | Bliss excess [10] | Bliss excess [11] | combination Emax [12] |
| --- | --- | --- | --- | --- | --- | --- | --- | --- | --- | --- | --- | --- | --- | --- | --- | --- |
| NC1(C(=O)N[C@@H](CCO)c2ccc(Cl)cc2)CCN(c2ncnc3[nH]ccc23)CC1 [Capivasertib] + CC(C)n1c(=O)n(C)c2cnc3cc(F)c(-c4ccc(OCCCN5CCCCC5)nc4)cc3c21 [AZD1390] (first compound max 10 µM, 7x7, partner max 0.3 µM) | -0.0496 | -0.0406 | -0.0343 | -0.0847 | -0.0388 | -0.0458 | -0.0189 | -0.037 | -0.0587 | -0.179 | -0.0549 | -0.0251 | -0.079 | -0.0196 | -0.0076 | 0.403 |
| NC1(C(=O)N[C@@H](CCO)c2ccc(Cl)cc2)CCN(c2ncnc3[nH]ccc23)CC1 [Capivasertib] + C[C@@H]1COCCN1C2=NC(=NC(=C2)C3(CC3)[S@](=N)(=O)C)C4=C5C=CNC5=NC=C4 [AZD6738] (first compound max 10 µM, 7x7, partner max 10 µM) | -0.0239 | 0.0314 | -0.0288 | -0.0405 | -0.0491 | -0.0305 | -0.0407 | -0.0204 | 0.0282 | -0.072 | -0.0516 | -0.027 | 0.0135 | -0.101 | -0.0241 | 0.456 |
| COc1nnc2ccc(N3CCC(c4ccc(OCCN5CCN(C)C(=O)[C@H]5C)cc4)CC3)nn12 [AZD5153] + CC1(C)CCC(CN2CCN(c3ccc(C(=O)NS(=O)(=O)c4ccc(NCC5CCOCC5)c([N+](=O)[O-])c4)c(Oc4cnc5[nH]ccc5c4)c3)CC2)=C(c2ccc(Cl)cc2)C1 [Venetoclax] (first compound max 1 µM, 7x7, partner max 1 µM) | -0.057 | -0.078 | -0.0383 | -0.0766 | -0.0708 | -0.0381 | 0.0346 | 0.0165 | -0.0832 | -0.125 | -0.0037 | -0.0685 | -0.0523 | -0.058 | -0.0264 | 0.372 |
| CC(=O)c1c(C)c2cnc(Nc3ccc(N4CCNCC4)cn3)nc2n(C2CCCC2)c1=O [Palbociclib] + Cn1cnc2c(F)c(Nc3ccc(Br)cc3Cl)c(C(=O)NOCCO)cc21 [Selumetinib] (first compound max 10 µM, 7x7, partner max 10 µM) | 0.0027 | -0.0418 | -0.0086 | -0.0133 | -0.0257 | 0.038 | -0.0013 | -0.0449 | -0.0313 | -0.0551 | -0.0378 | -0.031 | 0.067 | 0.0128 | -0.0259 | 0.133 |
| CS(=O)(=O)CCNCc1ccc(-c2ccc3ncnc(Nc4ccc(OCc5cccc(F)c5)c(Cl)c4)c3c2)o1 [Lapatinib] + C[C@@H](Oc1cc(-c2cnn(C3CCNCC3)c2)cnc1N)c1c(Cl)ccc(F)c1Cl [Crizotinib] (first compound max 10 µM, 7x7, partner max 10 µM) | -0.0461 | 0.0284 | -0.0067 | -0.0556 | -0.0307 | -0.0527 | -0.0129 | -0.0255 | -0.026 | -0.117 | -0.0448 | -0.118 | 0.0039 | 0.0138 | -0.0289 | 0.459 |
| COc1nnc2ccc(N3CCC(c4ccc(OCCN5CCN(C)C(=O)[C@H]5C)cc4)CC3)nn12 [AZD5153] + Cn1cnc2c(F)c(Nc3ccc(Br)cc3Cl)c(C(=O)NOCCO)cc21 [Selumetinib] (first compound max 1 µM, 7x7, partner max 10 µM) | 0.0241 | -0.0245 | 0.0709 | -0.032 | 0.108 | -0.0169 | 0.019 | -0.0108 | -0.0158 | -0.0256 | -0.0413 | -0.0003 | 0.063 | 0.0243 | -0.02 | 0.446 |
| CC(=O)c1c(C)c2cnc(Nc3ccc(N4CCNCC4)cn3)nc2n(C2CCCC2)c1=O [Palbociclib] + CC1(C)CCC(CN2CCN(c3ccc(C(=O)NS(=O)(=O)c4ccc(NCC5CCOCC5)c([N+](=O)[O-])c4)c(Oc4cnc5[nH]ccc5c4)c3)CC2)=C(c2ccc(Cl)cc2)C1 [Venetoclax] (first compound max 10 µM, 7x7, partner max 1 µM) | -0.0197 | -0.0444 | -0.0322 | 0.0131 | -0.042 | -0.0152 | -0.0174 | -0.0339 | -0.0067 | -0.143 | -0.0484 | -0.0586 | 0.0006 | -0.0899 | -0.025 | 0.255 |
| Cn1cnc2c(F)c(Nc3ccc(Br)cc3Cl)c(C(=O)NOCCO)cc21 [Selumetinib] + C[C@@H]1COCCN1C2=NC(=NC(=C2)C3(CC3)[S@](=N)(=O)C)C4=C5C=CNC5=NC=C4 [AZD6738] (first compound max 10 µM, 7x7, partner max 10 µM) | 0.0189 | -0.0485 | 0.0236 | 0.059 | 0.0196 | -0.0278 | 0.029 | 0.0132 | -0.0255 | -0.0375 | -0.0282 | 0.0125 | 0.0537 | -0.0121 | 0.0142 | 0.19 |
| Cn1cnc2c(F)c(Nc3ccc(Br)cc3Cl)c(C(=O)NOCCO)cc21 [Selumetinib] + CC(C)n1c(=O)n(C)c2cnc3cc(F)c(-c4ccc(OCCCN5CCCCC5)nc4)cc3c21 [AZD1390] (first compound max 10 µM, 7x7, partner max 0.3 µM) | -0.0271 | -0.0469 | -0.0244 | 0.0063 | -0.0565 | -0.0513 | -0.0235 | -0.0372 | -0.0292 | -0.0464 | -0.0178 | -0.014 | 0.025 | -0.0078 | -0.0336 | 0.0782 |
| NC1(C(=O)N[C@@H](CCO)c2ccc(Cl)cc2)CCN(c2ncnc3[nH]ccc23)CC1 [Capivasertib] + CC(=O)c1c(C)c2cnc(Nc3ccc(N4CCNCC4)cn3)nc2n(C2CCCC2)c1=O [Palbociclib] (first compound max 10 µM, 7x7, partner max 10 µM) | 0.0051 | -0.0261 | 0.0018 | -0.0228 | 0.0024 | -0.0236 | 0.0127 | -0.0269 | 0.0276 | -0.0562 | -0.018 | -0.0514 | 0.0634 | -0.0837 | -0.0466 | 0.426 |
| COc1nnc2ccc(N3CCC(c4ccc(OCCN5CCN(C)C(=O)[C@H]5C)cc4)CC3)nn12 [AZD5153] + CCN(CCO)CCCOc1ccc2c(Nc3cc(CC(=O)Nc4cccc(F)c4)[nH]n3)ncnc2c1 [AZD2811] (first compound max 1 µM, 7x7, partner max 1 µM) | -0.0295 | -0.0197 | 0.0199 | -0.13 | -0.0034 | -0.0382 | 0.0618 | -0.042 | -0.0248 | -0.0626 | -0.0668 | -0.102 | 0.0024 | -0.0452 | -0.0249 | 0.384 |
| Cn1cnc2c(F)c(Nc3ccc(Br)cc3Cl)c(C(=O)NOCCO)cc21 [Selumetinib] + C=CCn1c(=O)c2cnc(Nc3ccc(N4CCN(C)CC4)cc3)nc2n1-c1cccc(C(C)(C)O)n1 [AZD1775] (first compound max 10 µM, partner max 1 µM) | -0.0187 | -0.0466 | -0.0036 | -0.0548 | 0.0032 | -0.0251 | -0.0005 | -0.0564 | -0.0578 | -0.0223 | -0.0524 | -0.0315 | -0.005 | -0.0367 | -0.0891 | 0.512 |
| COc1nnc2ccc(N3CCC(c4ccc(OCCN5CCN(C)C(=O)[C@H]5C)cc4)CC3)nn12 [AZD5153] + C=CCn1c(=O)c2cnc(Nc3ccc(N4CCN(C)CC4)cc3)nc2n1-c1cccc(C(C)(C)O)n1 [AZD1775] (first compound max 1 µM, partner max 1 µM) | -0.0212 | -0.0279 | -0.0426 | -0.0209 | -0.0045 | -0.0371 | -0.0255 | -0.0823 | 0.0244 | -0.0618 | -0.0373 | -0.0421 | -0.0873 | -0.101 | -0.0246 | 0.582 |
| CC(=O)c1c(C)c2cnc(Nc3ccc(N4CCNCC4)cn3)nc2n(C2CCCC2)c1=O [Palbociclib] + Cc1c2c(nn1C)CSCc1cc(n(C)n1)CSc1cc(c3ccccc3c1)OCCCc1c(C(=O)O)n(C)c3c-2c(Cl)ccc13 [AZD5991] (first compound max 10 µM, 7x7, partner max 1 µM) | -0.0057 | -0.0924 | -0.0069 | -0.0018 | -0.0289 | -0.0142 | 0.0232 | -0.0904 | -0.0335 | -0.0004 | -0.0382 | -0.0196 | -0.0691 | -0.0666 | -0.0439 | 0.416 |
| COc1nnc2ccc(N3CCC(c4ccc(OCCN5CCN(C)C(=O)[C@H]5C)cc4)CC3)nn12 [AZD5153] + Cc1c2c(nn1C)CSCc1cc(n(C)n1)CSc1cc(c3ccccc3c1)OCCCc1c(C(=O)O)n(C)c3c-2c(Cl)ccc13 [AZD5991] (first compound max 1 µM, 7x7, partner max 1 µM) | -0.0215 | -0.0012 | 0.142 | -0.0037 | 0.0698 | -0.0459 | -0.0015 | 0.0059 | -0.0217 | -0.115 | -0.0209 | -0.003 | 0.0194 | -0.0631 | -0.0337 | 0.599 |
| NC1(C(=O)N[C@@H](CCO)c2ccc(Cl)cc2)CCN(c2ncnc3[nH]ccc23)CC1 [Capivasertib] + Cn1cnc2c(F)c(Nc3ccc(Br)cc3Cl)c(C(=O)NOCCO)cc21 [Selumetinib] (first compound max 10 µM, 7x7, partner max 10 µM) | 0.0344 | 0.0509 | 0.0905 | 0.0686 | 0.0646 | 0.119 | 0.0989 | 0.0363 | -0.0583 | -0.027 | 0.0215 | -0.0145 | 0.0764 | -0.0255 | 0.0122 | 0.41 |
| NC1(C(=O)N[C@@H](CCO)c2ccc(Cl)cc2)CCN(c2ncnc3[nH]ccc23)CC1 [Capivasertib] + COc1nnc2ccc(N3CCC(c4ccc(OCCN5CCN(C)C(=O)[C@H]5C)cc4)CC3)nn12 [AZD5153] (first compound max 10 µM, 7x7, partner max 1 µM) | 0.009 | 0.0761 | 0.0434 | 0.0534 | 0.0255 | 0.0035 | 0.0129 | 0.0588 | 0.0221 | 0.0792 | -0.0368 | 0.0073 | 0.0177 | -0.0021 | 0.0011 | 0.944 |
